Experimental data published in ChEMBL document CHEMBL4152373 (Bioorg Med Chem, 2018).
Active and inactive are the calls of the source. The rule behind the calls is not given here.

How the values were obtained:
[1] = Octanol-PBS buffer partition coefficient, log D of the compound at pH 7.4 by HPLC method
[2] = Fraction unbound in rat plasma at 5 uM after 4 hrs by equilibrium dialysis method
[3] = Oral bioavailability in Sprague-Dawley rat at 3 mg/kg administered via gavage as single dose by LC-MS/MS analysis; assay type: ADME, organism-based; settings: in vivo
[4] = test system: Mus musculus; assay: Dose normalized unbound AUC in C57Bl/6J mouse at 50 mg/kg, po administered via gavage as single dose by LC-MS/MS analysis; assay type: ADME, organism-based; settings: in vivo
[5] = test system: Mus musculus; assay: Antidiabetic activity in C57Bl/6J mouse assessed as inhibition of blood glucose AUC (0 to 120 mins) at 50 mg/kg, po treated prior to glucose challenge by OGTT relative to control; assay type: functional
[6] = test system: Mus musculus; assay: Antidiabetic activity in FFA2R knock-out C57Bl/6J mouse assessed as inhibition of blood glucose AUC (0 to 120 mins) at […], po treated prior to glucose challenge by OGTT; assay type: functional, organism-based
[7] = target: Free fatty acid receptor 1 (Homo sapiens) (UniProt O14842); assay: Antagonist activity at FFA1R (unknown origin) at 10 uM by aequorin based assay relative to control; assay type: functional
Free fatty acid receptor 1 (Homo sapiens), sequence (O14842 whole entry): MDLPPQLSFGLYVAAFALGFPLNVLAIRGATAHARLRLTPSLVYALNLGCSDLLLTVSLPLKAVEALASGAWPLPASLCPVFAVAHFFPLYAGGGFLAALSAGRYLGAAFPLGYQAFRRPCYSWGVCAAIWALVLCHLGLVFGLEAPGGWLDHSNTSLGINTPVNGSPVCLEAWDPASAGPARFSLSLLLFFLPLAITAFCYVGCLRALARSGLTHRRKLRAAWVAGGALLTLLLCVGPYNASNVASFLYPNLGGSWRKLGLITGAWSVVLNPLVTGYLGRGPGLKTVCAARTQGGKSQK

[8] = target: Hydroxycarboxylic acid receptor 2 (Homo sapiens) (UniProt Q8TDS4); assay: Antagonist activity at GPR109a (unknown origin) at 10 uM by aequorin based assay relative to control; assay type: functional
Hydroxycarboxylic acid receptor 2 (Homo sapiens), sequence (Q8TDS4 whole entry): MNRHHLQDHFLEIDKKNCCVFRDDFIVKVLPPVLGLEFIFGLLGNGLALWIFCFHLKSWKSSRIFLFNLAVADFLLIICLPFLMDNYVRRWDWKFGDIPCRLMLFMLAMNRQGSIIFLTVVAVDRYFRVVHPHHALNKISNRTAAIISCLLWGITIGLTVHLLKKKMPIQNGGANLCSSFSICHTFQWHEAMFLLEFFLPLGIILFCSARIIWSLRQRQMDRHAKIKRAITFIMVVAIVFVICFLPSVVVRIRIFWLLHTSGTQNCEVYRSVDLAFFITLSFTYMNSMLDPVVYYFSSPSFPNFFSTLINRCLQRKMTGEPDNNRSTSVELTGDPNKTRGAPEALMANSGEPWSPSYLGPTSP

[9] = target: Glucagon-like peptide 1 receptor (Homo sapiens) (UniProt P43220); settings: 10 uM
Glucagon-like peptide 1 receptor (Homo sapiens), sequence (P43220 whole entry): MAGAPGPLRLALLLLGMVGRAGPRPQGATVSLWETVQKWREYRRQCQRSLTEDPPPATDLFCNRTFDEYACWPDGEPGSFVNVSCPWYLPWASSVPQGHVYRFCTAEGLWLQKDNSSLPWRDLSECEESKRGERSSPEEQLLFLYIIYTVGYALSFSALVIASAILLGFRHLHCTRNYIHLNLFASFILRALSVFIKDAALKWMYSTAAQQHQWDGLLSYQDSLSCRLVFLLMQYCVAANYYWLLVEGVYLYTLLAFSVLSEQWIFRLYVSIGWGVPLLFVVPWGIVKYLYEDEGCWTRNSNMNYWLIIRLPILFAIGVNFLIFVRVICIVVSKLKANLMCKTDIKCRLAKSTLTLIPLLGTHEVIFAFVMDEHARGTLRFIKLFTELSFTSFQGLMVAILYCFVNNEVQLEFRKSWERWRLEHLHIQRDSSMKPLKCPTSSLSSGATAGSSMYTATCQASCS
Description: Antagonist activity at GLP1R (unknown origin) at 10 uM by cAMP accumulation based assay relative to control

[10] = target: T1, Glucagon-like peptide 2 receptor (Homo sapiens) (UniProt O95838); settings: 10 uM
T1 sequence (whole entry): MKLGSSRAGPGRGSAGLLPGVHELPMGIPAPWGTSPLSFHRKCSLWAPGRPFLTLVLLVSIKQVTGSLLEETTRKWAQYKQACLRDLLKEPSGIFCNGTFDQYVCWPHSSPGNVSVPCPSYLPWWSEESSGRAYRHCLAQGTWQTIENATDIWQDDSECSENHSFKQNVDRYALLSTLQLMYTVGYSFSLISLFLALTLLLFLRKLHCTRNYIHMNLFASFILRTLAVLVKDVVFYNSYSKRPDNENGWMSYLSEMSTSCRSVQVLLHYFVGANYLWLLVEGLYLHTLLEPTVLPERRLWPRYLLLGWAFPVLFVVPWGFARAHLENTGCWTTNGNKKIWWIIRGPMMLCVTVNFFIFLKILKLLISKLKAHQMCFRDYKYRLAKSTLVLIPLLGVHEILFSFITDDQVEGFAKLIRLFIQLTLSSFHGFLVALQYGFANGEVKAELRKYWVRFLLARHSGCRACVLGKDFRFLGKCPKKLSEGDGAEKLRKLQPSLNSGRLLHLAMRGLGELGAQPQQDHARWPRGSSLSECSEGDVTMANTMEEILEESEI
Description: Antagonist activity at GLP2R (unknown origin) at 10 uM by cAMP accumulation based assay relative to control

logD [1]: 2.6
fraction unbound at 4 h, 5 µM [2]: 0.0006
bioavailability [3]: 47%
fAUC/dose [4]: 2.1 µM·min
inhibition [7]: 13%
inhibition [8]: < 10%
inhibition [9]: < 10%
inhibition [10]: < 10%
Compound: COc1ccc(-c2ccccc2-c2csc(N(C(=O)[C@@H](CC(=O)O)CC3CCCC3)C3CC3)n2)cn1
inhibition in vivo at 50 mg/kg [5]: 33%
inhibition [6]: Active
